In article PMC9848371, “Synthesis, kinetic studies and in-silico investigations of novel quinolinyl-iminothiazolines as alkaline phosphatase inhibitors” (Journal of Enzyme Inhibition and Medicinal Chemistry, 2023):
“Also recorded” adds a separate entry of the source.

Legend:
[1] = molecular target: T1, calf intestinal alkaline phosphatase (Bos taurus, UniProt P19111); experiment: Alkaline phosphatase inhibition assay (spectrophotometric, p-NPP substrate); type: biochemical; settings: Mean ± SEM, pH 9.5, 37 °C
T1 sequence (P19111 20-533): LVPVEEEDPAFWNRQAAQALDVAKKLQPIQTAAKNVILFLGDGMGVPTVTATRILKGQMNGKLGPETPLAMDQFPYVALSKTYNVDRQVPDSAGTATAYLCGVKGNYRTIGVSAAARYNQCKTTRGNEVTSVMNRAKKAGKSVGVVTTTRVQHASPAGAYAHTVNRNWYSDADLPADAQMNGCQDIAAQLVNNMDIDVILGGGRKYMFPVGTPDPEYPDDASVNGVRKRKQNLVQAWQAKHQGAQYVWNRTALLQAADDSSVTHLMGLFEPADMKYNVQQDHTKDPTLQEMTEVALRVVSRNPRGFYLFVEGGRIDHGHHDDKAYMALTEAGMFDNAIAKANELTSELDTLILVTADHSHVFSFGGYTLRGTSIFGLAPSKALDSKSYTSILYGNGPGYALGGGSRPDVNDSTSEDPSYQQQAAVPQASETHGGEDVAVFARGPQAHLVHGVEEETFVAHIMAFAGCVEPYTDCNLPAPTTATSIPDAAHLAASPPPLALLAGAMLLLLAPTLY
Experimental: The inhibitory activity of calf intestinal alkaline phosphatase was evaluated using spectrophotometric assay as previously reported in our studies[55]^,[56]. In addition, Kinetic mechanism analysis was conducted to determine the mechanism of inhibition. […] The detailed procedure for alkaline phosphate inhibition assay and kinetic mechanism analysis is given in supplementary file. […]
Alkaline phosphatase inhibition assay and kinetic mechanism analysis
The reaction mixture comprised of 50 mM Tris -HCl buffer (5 mM MgCl2, 0.1 mM ZnCl2 pH 9.5), the compound (0.1 mM with final DMSO 1% (v/v) and mixture was pre -incubated for 10 min by adding 5 µL of CIALP (0.025 U/mL). Then, 10 µL of substrate (0.5 mM p-NPP (para nitrophenyl phosphate disodium salt) was added to initiate the reaction and the assay mixture was incubated again for 30 min at 37 °C. The change in absorbance of released p-nitrophenolate was monitored at 405 nm, using a 96-well microplate reader (SpectraMax ABS, USA). All the experiments were repeated three times in a triplicate manner.
The Alkaline Phosphatase activities were calculated according to the following formula: […]

[2] = molecular target: T1, calf intestinal alkaline phosphatase; experiment: Kinetic mechanism analysis (Lineweaver-Burk plot); type: biochemical; settings: for Km / Vmax: substrate para nitrophenyl phosphate disodium salt
Experimental: The inhibitory activity of calf intestinal alkaline phosphatase was evaluated using spectrophotometric assay as previously reported in our studies[55]^,[56]. In addition, Kinetic mechanism analysis was conducted to determine the mechanism of inhibition. […] The detailed procedure for alkaline phosphate inhibition assay and kinetic mechanism analysis is given in supplementary file.
According to the EI and ESI constants, respectively, it was determined if the compounds had the ability to inhibit the free enzyme and the enzyme-substrate complex. Figure 4 illustrates a succession of straight lines obtained from the Lineweaver–Burk plot of the enzyme’s kinetic studies against the substrate para nitrophenyl phosphate disodium salt at various inhibitor doses (A).
Where ODcontrol and ODsample represents the optical v densities in the absence and presence of […]
The inhibitor 6g concentrations were used 0.00, 0.169, 0.337 and 0.674 µM, Substrate p-NPP concentrations were 10, 5, 2.5, 1.25, 0.625 and 0.3125 mM. Pre-incubation time and other conditions were same as described in alkaline phosphatase inhibition assay section. Maximal initial velocities were determined from initial linear portion of absorbances up to 10 minutes after addition of enzyme at per minute’s interval. The inhibition type on the enzyme was assayed by Lineweaver-Burk plot of inverse of velocities (1/V) versus inverse of substrate concentration 1/[S] mM-1. The EI dissociation constant Ki was determined by secondary plot of 1/V versus inhibitor […]
Information Classification: General

IC50 [1] [nM]	melting point [°C]	Compound	also measured
3150 ± 251		CCCCC(=O)/N=c1/scc(-c2ccc(Br)cc2)n1-c1cnc2ccccc2c1 [Compound 6b]	
7250 ± 435		CCCC(=O)/N=c1/scc(-c2ccc(Br)cc2)n1-c1cnc2ccccc2c1 [Compound 6a]	
754 ± 55		CCCCCCCC(=O)N=c1scc(-c2ccc(Br)cc2)n1-c1cnc2ccccc2c1 [Compound 6e]	
8680 ± 908		CCCCCCCCCC(=O)/N=c1/scc(-c2ccc(Br)cc2)n1-c1cnc2ccccc2c1 [Compound 6f]	
337 ± 15	217 to 220	O=C(/N=c1/scc(-c2ccc(Br)cc2)n1-c1cnc2ccccc2c1)c1ccccc1 [Compound 6g, (E)-N-(4-(4-bromophenyl)-3-(quinolin-3-yl)thiazol-2(3H)-ylidene)benzamide]	Km ([2]; 6g concentration 0.169 µM): 310 µM; Vmax ([2]; 6g concentration 0.169 µM): 0.00204 ΔA /Min; Km ([2]; 6g concentration 0.337 µM): 310 µM; Vmax ([2]; 6g concentration 0.337 µM): 0.00175 ΔA /Min; Km ([2]; 6g concentration 0.674 µM): 310 µM; Vmax ([2]; 6g concentration 0.674 µM): 0.00133 ΔA /Min; Inhibition type ([2]; Lineweaver-Burk plot): non-competitively; also recorded: Non-Competitive; Ki ([2]; secondary plot of slope vs inhibitor concentration, read-out: Ki (EI dissociation constant)): 470 nM
6300 ± 634	103 to 105	Cc1ccc(C(=O)/N=c2/scc(-c3ccc(Br)cc3)n2-c2cnc3ccccc3c2)cc1 [Compound 6h]	
886 ± 74	188 to 190	CCCCCCC(=O)N=c1scc(-c2ccc(Br)cc2)n1-c1cnc2ccccc2c1 [Compound 6d]	
957 ± 71		O=C(/N=c1/scc(-c2ccc(Br)cc2)n1-c1cnc2ccccc2c1)c1ccc(Cl)cc1Cl [Compound 6i, N-dichlorobenzamide quinolinyl iminothiazoline]	
4240 ± 241	181 to 182	CCCCCC(=O)/N=c1/scc(-c2ccc(Br)cc2)n1-c1cnc2ccccc2c1 [Compound 6c, (E)-N-(4-(4-Bromophenyl)-3-(quinolin-3-yl)thiazol-2(3H)-ylidene)hexanamide]	

Compound	IC50 [1] [nM]	melting point [°C]	also measured
O=C(/N=c1/scc(-c2ccc(Br)cc2)n1-c1cnc2ccccc2c1)c1cc([N+](=O)[O-])cc([N+](=O)[O-])c1 [Compound 6j, N-nitrobenzamide quinolinyl iminothiazoline]	509 ± 36		
